Consider 38 compounds from US8791118B2, “Pyridopyrazines as highly selective ras-Raf-Mek-Erk signal transduction pathway inhibitors” (Aeterna Zentaris GmbH, priority 2011, dated 2014).

In general, melting point refers to the temperature, or range, at which the solid turns liquid.

`CCNC(=O)Oc1ccc(-c2cnc3ccc(NC(=O)NCCCCc4ccccc4)nc3n2)cc1` gave a melting point of 198 °C.

`Cl.O=C(NCCCCc1ccccc1)Nc1ccc2ncc(N3CCNCC3)nc2n1` came in with a melting point of 209 to 211 °C.

Regarding `Cc1n[nH]c(C)c1-c1cnc2ccc(NC(=O)NCCCCc3ccccc3)nc2n1` [Compound 91, 1-[3-(3,5-Dimethyl-1H-pyrazol-4-yl)-pyrido[2,3-b]pyrazin-6-yl]-3-(4-phenyl-butyl)-urea], the melting point is 299 to 300 °C.

`COc1ccc(-c2cnc3ccc(NC(=O)NCCCCc4ccccc4)nc3n2)c(OC)c1OC` [Compound 92, 1-(4-Phenyl-butyl)-3-[3-(2,3,4-trimethoxy-phenyl)-pyrido[2,3-b]pyrazin-6-yl]-urea]: the melting point was 135 to 138 °C.

Regarding `CN1CCN(c2cnc3ccc(NC(=O)NCCCCc4ccccc4)nc3n2)CC1` [Compound 93, 1-[3-(4-Methyl-piperazin-1-yl)-pyrido[2,3-b]pyrazin-6-yl]-3-(4-phenyl-butyl)-urea], the melting point is 181 to 183 °C.

With `O=C(NCCCCc1ccccc1)Nc1ccc2ncc(-c3ccc4nc[nH]c4c3)nc2n1` [Compound 94, 1-[3-(3H-Benzoimidazol-5-yl)-pyrido[2,3-b]pyrazin-6-yl]-3-(4-phenyl-butyl)-urea], the melting point was determined as 226 °C.

The compound `Nc1cccc(-c2cnc3ccc(NC(=O)NCCCCc4ccccc4)nc3n2)c1` [Compound 95, 1-[3-(3-Amino-phenyl)-pyrido[2,3-b]pyrazin-6-yl]-3-(4-phenyl-butyl)-urea] showed a melting point of 200 to 203 °C.

`Cc1ccc(CCCCNC(=O)Nc2ccc3ncc(-c4cnn(C)c4)nc3n2)cc1` [Compound 97, 1-[3-(1-Methyl-1H-pyrazol-4-yl)-pyrido[2,3-b]pyrazin-6-yl]-3-(4-p-tolyl-butyl)-urea] returned a melting point of 202 to 204 °C.

In the case of `COc1ccc(-c2cnc3ccc(NC(=O)N[C@H](C)CCCc4ccccc4)nc3n2)cc1OC` [Compound 98, 1-[3-(3,4-Dimethoxy-phenyl)-pyrido[2,3-b]pyrazin-6-yl]-3-((R)-1-methyl-4-phenyl-butyl)-urea], the melting point was in the range of 195 to 197 °C.

In turn, `Cn1cc(-c2cnc3ccc(NC(=O)NCCCCc4ccc(F)cc4)nc3n2)cn1` [Compound 99, 1-[4-(4-Fluoro-phenyl)-butyl]-3-[3-(1-methyl-1H-pyrazol-4-yl)-pyrido[2,3-b]pyrazin-6-yl]-urea] had a melting point of 197 to 200 °C.

`CCCn1cc(-c2cnc3ccc(NC(=O)NCCCC(C)(C)c4ccccc4)nc3n2)cn1` [Compound 100, 1-(4-Methyl-4-phenyl-pentyl)-3-[3-(1-propyl-1H-pyrazol-4-yl)-pyrido[2,3-b]pyrazin-6-yl]-urea]: the melting point lay within 205 to 207 °C.

In the case of `CCOc1ccccc1-c1cnc2ccc(NC(=O)NCCCCc3ccccc3)nc2n1` [Compound 102, 1-[3-(2-Ethoxy-phenyl)-pyrido[2,3-b]pyrazin-6-yl]-3-(4-phenyl-butyl)-urea], the melting point lay in the range of 173 to 175 °C.

On to `O=C(NCCCCc1ccccc1)Nc1ccc2ncc(-c3cc(Cl)c(O)c(Cl)c3)nc2n1` [Compound 103, 1-[3-(3,5-Dichloro-4-hydroxy-phenyl)-pyrido[2,3-b]pyrazin-6-yl]-3-(4-phenyl-butyl)-urea], for which the melting point fell in the range of 271 to 273 °C.

Take `O=C(NCCCCc1ccccc1)Nc1ccc2ncc(-c3cccc(O)c3)nc2n1` [Compound 104, 1-[3-(3-Hydroxy-phenyl)-pyrido[2,3-b]pyrazin-6-yl]-3-(4-phenyl-butyl)-urea]: the melting point lay within 226 to 228 °C.

For `O=C(NCCCCc1ccccc1)Nc1ccc2ncc(-c3ccn[nH]3)nc2n1` [Compound 105, 1-(4-Phenyl-butyl)-3-[3-(2H-pyrazol-3-yl)-pyrido[2,3-b]pyrazin-6-yl]-urea], the melting point was 280 °C (dec.).

The compound `Cc1cc(O)ccc1-c1cnc2ccc(NC(=O)NCCCCc3ccccc3)nc2n1` [Compound 106, 1-[3-(4-Hydroxy-2-methyl-phenyl)-pyrido[2,3-b]pyrazin-6-yl]-3-(4-phenyl-butyl)-urea] gave a melting point of 207 to 210 °C.

Take `CC(=O)Oc1ccc(-c2cnc3ccc(NC(=O)NCCCCc4ccccc4)nc3n2)cc1` [Compound 107, Acetic acid 4-{6-[3-(4-phenyl-butyl)-ureido]-pyrido[2,3-b]pyrazin-3-yl}-phenyl ester]: the melting point turned out to be 220 °C.

`O=C(NCCCCc1ccccc1)Nc1ccc2ncc(-c3ccc(O)c(Br)c3)nc2n1` [Compound 109, 1-[3-(3-Bromo-4-hydroxy-phenyl)-pyrido[2,3-b]pyrazin-6-yl]-3-(4-phenyl-butyl)-urea] showed a melting point of 238 to 241 °C.

Compound `Cn1cc(-c2cnc3ccc(NC(=O)NCC4CCc5ccccc5C4)nc3n2)cn1` (centres unmarked) [Compound 111, 1-[3-(1-Methyl-1H-pyrazol-4-yl)-pyrido[2,3-b]pyrazin-6-yl]-3-(1,2,3,4-tetrahydro-naphthalen-2-ylmethyl)-urea] had a melting point of 230 to 233 °C.

In the case of `Cc1c(-c2cnc3ccc(NC(=O)NCCCCc4ccccc4)nc3n2)cnn1-c1ccccc1` [Compound 113, 1-[3-(5-Methyl-1-phenyl-1H-pyrazol-4-yl)-pyrido[2,3-b]pyrazin-6-yl]-3-(4-phenyl-butyl)-urea], the melting point was 224 to 226 °C.

With `COc1ccc(CCCCNC(=O)Nc2ccc3ncc(-c4cnn(C)c4)nc3n2)cc1` [Compound 115, 1-[4-(4-Methoxy-phenyl)-butyl]-3-[3-(1-methyl-1H-pyrazol-4-yl)-pyrido[2,3-b]pyrazin-6-yl]-urea], the melting point was in the range of 195 to 196 °C.

For the compound `COc1ccc(-c2cnc3ccc(NC(=O)NCCCCc4ccccc4)nc3n2)cc1` [Compound 118, 1-[3-(4-Methoxy-phenyl)-pyrido[2,3-b]pyrazin-6-yl]-3-(4-phenyl-butyl)-urea], the melting point lay within 200 to 203 °C.

In turn, `CCCNc1cnc2ccc(NC(=O)NCCCCc3ccccc3)nc2n1` [Compound 119, 1-(4-Phenyl-butyl)-3-(3-propylamino-pyrido[2,3-b]pyrazin-6-yl)-urea] yielded a melting point of 118 to 120 °C.

With `Cc1ccccc1-c1cnc2ccc(NC(=O)NCCCCc3ccccc3)nc2n1` [Compound 120, 1-(4-Phenyl-butyl)-3-(3-o-tolyl-pyrido[2,3-b]pyrazin-6-yl)-urea], the melting point is 158 to 160 °C.

Compound `COc1ccccc1-c1cnc2ccc(NC(=O)NCCCCc3ccccc3)nc2n1` [Compound 124, 1-[3-(2-Methoxy-phenyl)-pyrido[2,3-b]pyrazin-6-yl]-3-(4-phenyl-butyl)-urea] had a melting point of 173 to 177 °C.

The compound `C[C@H](CCCc1ccccc1)NC(=O)Nc1ccc2ncc(-c3ccc(O)c(Cl)c3)nc2n1` [Compound 129, 1-[3-(3-Chloro-4-hydroxy-phenyl)-pyrido[2,3-b]pyrazin-6-yl]-3-((R)-1-methyl-4-phenyl-butyl)-urea] yielded a melting point of 225 to 228 °C.

On to `Nc1ccccc1-c1cnc2ccc(NC(=O)NCCCCc3ccccc3)nc2n1` [Compound 130, 1-[3-(2-Amino-phenyl)-pyrido[2,3-b]pyrazin-6-yl]-3-(4-phenyl-butyl)-urea], for which the melting point was in the range of 190 to 191 °C.

Turning to `CCCn1cc(-c2cnc3ccc(NC(=O)NCCCC(=O)c4ccccc4)nc3n2)cn1` [Compound 131, 1-(4-Oxo-4-phenyl-butyl)-3-[3-(1-propyl-1H-pyrazol-4-yl)-pyrido[2,3-b]pyrazin-6-yl]-urea], the melting point lay within 210 to 211 °C.

For `CCOC(=O)Oc1ccc(-c2cnc3ccc(NC(=O)NCCCCc4ccccc4)nc3n2)cc1` [Compound 132, Carbonic acid ethyl ester 4-{6-[3-(4-phenyl-butyl)-ureido]-pyrido[2,3-b]pyrazin-3-yl}-phenyl ester], the melting point came to 212 °C.

`O=C(NCCCCc1ccccc1)Nc1ccc2ncc(-c3ccccc3O)nc2n1` [Compound 133, 1-[3-(2-Hydroxy-phenyl)-pyrido[2,3-b]pyrazin-6-yl]-3-(4-phenyl-butyl)-urea] gave a melting point of 247 to 248 °C.

`CC(C)(C)C(=O)Oc1ccc(-c2cnc3ccc(NC(=O)NCCCCc4ccccc4)nc3n2)cc1` [Compound 135, 2,2-Dimethyl-propionic acid 4-{6-[3-(4-phenyl-butyl)-ureido]-pyrido[2,3-b]pyrazin-3-yl}-phenyl ester] gave a melting point of 225 °C.

Consider `CSc1ccc(-c2cnc3ccc(NC(=O)NCCCCc4ccccc4)nc3n2)cc1` [Compound 137, 1-[3-(4-Methylsulfanyl-phenyl)-pyrido[2,3-b]pyrazin-6-yl]-3-(4-phenyl-butyl)-urea], for which the melting point lay within 227 to 230 °C.

Consider `N#Cc1cccc(-c2cnc3ccc(NC(=O)NCCCCc4ccccc4)nc3n2)c1` [Compound 138, 1-[3-(3-Cyano-phenyl)-pyrido[2,3-b]pyrazin-6-yl]-3-(4-phenyl-butyl)-urea], for which the melting point was in the range of 237 to 240 °C.

`COc1cc(Nc2cnc3ccc(NC(=O)NCCCCc4ccccc4)nc3n2)cc(OC)c1OC` [Compound 139, 1-(4-Phenyl-butyl)-3-[3-(3,4,5-trimethoxy-phenylamino)-pyrido[2,3-b]pyrazin-6-yl]-urea] displayed a melting point of 223 to 225 °C.

`COc1cc(Nc2cnc3ccc(NC(=O)NCCCCc4ccccc4)nc3n2)cc(O)c1OC` [Compound 141, 1-[3-(3-Hydroxy-4,5-dimethoxy-phenylamino)-pyrido[2,3-b]pyrazin-6-yl]-3-(4-phenyl-butyl)-urea] came in with a melting point of 136 to 139 °C.

Regarding `O=C(NCCCCc1ccccc1)Nc1ccc2ncc(-c3ccc(F)cc3O)nc2n1` [Compound 144, 1-[3-(4-Fluoro-2-hydroxy-phenyl)-pyrido[2,3-b]pyrazin-6-yl]-3-(4-phenyl-butyl)-urea], the melting point was in the range of 248 to 249 °C.

In the case of `COc1ccc(-c2cnc3ccc(NC(=O)NCCCCc4ccccc4)nc3n2)cc1S(=O)(=O)N1CCOCC1` [Compound 145, 1-{3-[4-Methoxy-3-(morpholine-4-sulfonyl)-phenyl]-pyrido[2,3-b]pyrazin-6-yl}-3-(4-phenyl-butyl)-urea], the melting point is 256 to 258 °C.

Turning to `COc1ncccc1-c1cnc2ccc(NC(=O)NCCCCc3ccccc3)nc2n1` [Compound 146, 1-[3-(2-Methoxy-pyridin-3-yl)-pyrido[2,3-b]pyrazin-6-yl]-3-(4-phenyl-butyl)-urea], the melting point lay within 194 to 197 °C.
